Source: PMC8314276, “A Commercial Extract of Cyanotis arachnoidea Roots as a Source of Unusual Ecdysteroid Derivatives with Insect Hormone Receptor Binding Activity” (Journal of Natural Products, 2021)
pIC50: −log10 of the molar value. Like-named read-outs stand apart in the source and are kept apart here.

Legend:
[1] = target: T1, insect ecdysteroid receptor (EcR) (Spodoptera frugiperda, UniProt Q8MWR2); assay: EcR binding assay ([3H]PonA displacement in Sf-9 cells); conditions: for IC50 / pIC50: inhibition of [3H]PonA binding; for IC50: Sf-9 cell suspension, 25 °C, 30 min, probit analysis; for inhibition at 25 µM: read-out: inh% at 25 μM; for pIC50: IC50, EcR binding; for pIC50 / EcR binding activity in words: Sf-9 cells; for EcR binding activity in words: [3H]PonA binding; for EcR binding potency/affinity relative to 20E: fold higher than 20E
T1 construct: To an Sf-9 cell suspension (400 μL; (2.0–3.0) × 10^6 cells/mL) in a disposable culture tube; endogenous in cells; host or cells: Sf-9 cells
T1 sequence (Q8MWR2 1-403): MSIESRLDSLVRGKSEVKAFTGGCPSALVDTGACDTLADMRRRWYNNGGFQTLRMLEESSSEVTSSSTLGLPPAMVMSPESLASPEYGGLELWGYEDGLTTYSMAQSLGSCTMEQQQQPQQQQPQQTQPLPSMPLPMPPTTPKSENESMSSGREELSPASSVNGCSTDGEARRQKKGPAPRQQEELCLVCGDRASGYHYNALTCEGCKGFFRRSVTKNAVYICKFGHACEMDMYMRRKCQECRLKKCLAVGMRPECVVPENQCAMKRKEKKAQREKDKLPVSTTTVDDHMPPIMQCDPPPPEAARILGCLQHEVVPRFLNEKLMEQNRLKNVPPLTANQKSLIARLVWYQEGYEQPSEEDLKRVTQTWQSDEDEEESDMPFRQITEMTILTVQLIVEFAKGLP
Description: Tritiated PonA ([^3H]PonA; 3.5 TBq/mmol) was custom synthesized by American Radiolabeled Chemicals, Inc. (St. Louis, MO, USA). A stock solution of [^3H]PonA (30 000 dpm/μL, ∼0.1 μM) was prepared in 70% aqueous EtOH. Cold PonA and 20E were obtained from Enzo Biochem Inc. (New York, NY, USA) and Sigma-Aldrich Co. (St. Louis, MO, USA), respectively. Tebufenozide was obtained from stock samples. All test compounds were dissolved in DMSO. An Sf-9 cell line was cultured in EX-CELL 420 medium (SAFC Biosciences, Inc., Lenexa, KS, USA) supplemented with 10% fetal bovine serum.
The binding assay was performed as described previously with some modifications.[43],[44] To an Sf-9 cell suspension (400 μL; (2.0–3.0) × 10^6 cells/mL) in a disposable culture tube (12 mm × 75 mm) was added a test compound solution (1 μL), followed by a [^3H]PonA solution (2 μL, 60 000 dpm). After incubation at 25 °C for 30 min, the cell suspension was diluted with water (3 mL) and filtered through a glass fiber filter GF/B (25 mm; Whatman plc, Maidstone, UK). The filter was washed with water (2 × 3 mL), dried, and transferred to a glass vial. To the vial were added 3 mL of Insta-Gel Plus (PerkinElmer Inc., Waltham, MA, USA), and the radioactivity was measured with an LSC-8000 counter (Aloka, Tokyo, Japan). DMSO and PonA (final concentration: 2.7 μM) were used to determine the total and nonspecific binding, respectively. The test compounds were first screened at 25 μM, and the compounds with an inhibition rate of ≥50% were subjected to concentration–response experiments. The 50% inhibition concentration for [^3H]PonA binding [IC50 (M)] was determined using probit analysis,[45] and the logarithm of its reciprocal, pIC50, was used as the index of the binding affinity.

[2] = target: T2, EcR (Spodoptera frugiperda, UniProt Q8MWR2); assay: Reporter gene assay (hsp27 ecdysone response element/firefly luciferase) in Sf-9 cells; type: cell-based, insect; conditions: for agonistic activity in reporter gene assay at 0.1 μM / agonistic activity in reporter gene assay at 1 μM: Sf-9 cells, luciferase reporter; for agonist/antagonist classification: binding assay combined with reporter gene assay
T2 sequence (Q8MWR2 1-403): T1 sequence (Q8MWR2 1-403)
Description: The reporter gene assay was performed in Sf-9 cells according to a previously reported method.[46] Briefly, a reporter plasmid was constructed from pBmbA/hsp27/firefly luciferase (hsp27/Fluc), in which seven repeats of hsp27 ecdysone response element were inserted. This plasmid was a kind gift from Dr. Luc Swevers (Institute of Biosciences & Applications, National Center for Scientific Research “Demokritos”, Athens, Greece). The plasmid was amplified in Escherichia coli and purified using a QIAGEN plasmid midi kit (QIAGEN GmbH, Hilden, Germany). A cell suspension (approximately 2.0 × 10^6 cells/mL; 400 μL) was added to each well of a 24-well plate, and it was incubated for 1 h. Then, 200 μL of a mixture of plasmids and TransFast transfection reagent (Promega; Madison, WI, USA) was added to each well. After incubating for 24 h, 6 μL of a solution of test compound (1% v/v) was added and incubated. After 48 h, the medium in each well was removed with a pipet. Cells were lysed by adding 100 μL/well of Passive Lysis Buffer and incubating for 15 min at 25 °C. The lysate (20 μL) was transferred to a 96-well microplate for the luciferase assay. Chemical luminescence was measured using a 96-microplate GLOMAX luminometer (Promega), according to the manufacturer’s instructions.

[3] = pIC50 (M), ecdysteroid receptor binding affinity

`CC(C)(O)CC[C@@H](O)[C@](C)(O)[C@H]1CC[C@@]2(O)C3=CC(=O)[C@@H]4C[C@@H](O)[C@@H](O)C[C@]4(C)[C@H]3CC[C@]12C` [20E, 20-hydroxyecdysone, reference compound] showed an IC50 ([1]; read-out: pIC50 (M), ecdysteroid receptor binding affinity (converted)) of 1.66e-07 M.
With `CC(C)(O)CC[C@@H](O)[C@](C)(O)[C@H]1CC[C@@H]2C3=C(CC[C@@]21C)[C@@]1(C)C[C@H](O)[C@H](O)CC1=C(O)C3=O` [Compound 4, 14β-14,15-Dihydrocalonysterone] the IC50 [1, 3] was about 2.51e-05 M and the inhibition at 25 µM [1] was 49.8%.
`CC(C)CC[C@@H](O)[C@](C)(O)[C@H]1CC[C@H]2C3=CC(=O)[C@@H]4C[C@@H](O)[C@@H](O)C[C@]4(C)C3=CC[C@]12C` [Compound 5, 14-Deoxydacryhainansterone] was tested, and the “agonistic activity in reporter gene assay at 0.1 μM” value (“agonistic activity … at 0.1 μM” for short) [2] was “agonists”, the pIC50 [1] was 7.38 and the “EcR binding activity in words” value [1] was “strong”. The “EcR binding potency/affinity relative to 20E” value [1] was “approximately 4 times”.
`CC(C)CCC(=O)[C@](C)(O)[C@H]1CC[C@@]2(O)C3=CC(=O)[C@@H]4C[C@@H](O)[C@@H](O)C[C@]4(C)C3=CC[C@]12C` [Compound 6, 22-Oxodacryhainansterone] was tested, and the “agonistic activity … at 0.1 μM” value [2] was “did not show agonistic activity”, the “agonistic activity in reporter gene assay at 1 μM” value (shortened to “agonistic activity … at 1 μM”) [2] was “agonists” and the pIC50 [1] was 6.42. The “EcR binding activity in words” value [1] was “moderate”.
For `CC(C)(O)CC[C@@H](O)[C@](C)(O)[C@H]1CC[C@H]2C3=CC(=O)[C@@H]4C[C@@H](O)[C@@H](O)C[C@]4(C)C3=CC[C@]12C` [Compound 7, 14-Deoxy-25-hydroxydacryhainansterone], the “agonistic activity … at 0.1 μM” value [2] was “did not show agonistic activity”, the “agonistic activity … at 1 μM” value [2] was “agonists” and the “EcR binding activity in words” value [1] was “moderate”. The IC50 [1, 3] was 4.79e-07 M.
`CC(C)(O)CC[C@@H](O)[C@](C)(O)[C@H]1CC[C@H]2C3=CC(=O)[C@@H]4C[C@@H](O)[C@@H](O)C[C@]4(C)[C@H]3CC[C@]12C` [Compound 8, 14-Deoxy-20-hydroxyecdysone] was tested, and the “agonistic activity … at 0.1 μM” value [2] was “agonists”, the “EcR binding potency/affinity relative to 20E” value [1] was 2.4 times and the IC50 [1, 3] was 6.92e-08 M.
For `CC(C)(O)CC[C@@H](O)[C@](C)(O)[C@H]1CC[C@H]2C3=CC(=O)[C@H]4C[C@@H](O)[C@@H](O)C[C@]4(C)[C@H]3CC[C@]12C` [Compound 9, 5α-14-Deoxy-20-hydroxyecdysone], the “EcR binding activity in words” value [1] was “very weak activity”, the IC50 [1, 3] was over 2.51e-05 M and the inhibition at 25 µM [1] was 0.93%.
In the case of `CC(C)(O)CC[C@@H](O)[C@](C)(O)[C@H]1CC[C@@H]2C3=CC(=O)[C@@H]4C[C@@H](O)[C@@H](O)C[C@]4(C)[C@H]3CC[C@@]21C` [Compound 10, 14β-14-Deoxy-20-hydroxyecdysone], the IC50 [1, 3] was over 2.51e-05 M and the inhibition at 25 µM [1] was 18.2%.
Compound `CC(C)(O)CC[C@@H](O)[C@](C)(O)[C@H]1CC=C2C3=C(CC[C@@]21C)[C@@]1(C)C[C@H](O)[C@H](O)CC1=C(O)C3=O` [Compound 11, calonysterone] has an IC50 [1, 3] of over 2.51e-05 M and an inhibition at 25 µM [1] of 0%.
With `CC(C)CC[C@@H](O)[C@](C)(O)[C@H]1CC[C@@]2(O)C3=CC(=O)[C@@H]4C[C@@H](O)[C@@H](O)C[C@]4(C)C3=CC[C@]12C` [Compound 12, dacryhainansterone] the “agonistic activity … at 0.1 μM” value [2] was “agonists”, the “EcR binding activity in words” value [1] was “strong” and the IC50 [1, 3] was 2.29e-08 M.
In the case of `CC1(C)CC[C@H]([C@](C)(O)[C@H]2CC[C@@]3(O)C4=CC(=O)[C@@H]5C[C@@H](O)[C@@H](O)C[C@]5(C)[C@H]4CC[C@]23C)O1` [Compound 13, shidasterone], the “agonistic activity … at 1 μM” value [2] was “did not activate the reporter gene”, the agonist/antagonist classification [2] was “ecdysteroid antagonists” and the IC50 [1, 3] was 2.51e-06 M.
With `CC(C)CC[C@@H](O)[C@](C)(O)[C@H]1CC[C@@]2(O)C3=CC(=O)[C@@H]4C[C@@H](O)[C@@H](O)C[C@]4(C)[C@H]3[C@H](O)C[C@]12C` [Compound 14, ajugasterone C] the “agonistic activity … at 0.1 μM” value [2] was “agonists” and the IC50 [1, 3] was 6.46e-07 M.
In the case of `CC(C)(O)CC[C@@H](O)[C@](C)(O)[C@H]1CC[C@@]2(O)C3=CC(=O)[C@H]4C[C@@H](O)C[C@@H](O)[C@]4(C)[C@H]3CC[C@]12C` [Compound 15, 5α-2-deoxyintegristerone A], the “EcR binding activity in words” value [1] was “very weak activity”, the IC50 [1, 3] was over 2.51e-05 M and the inhibition at 25 µM [1] was 2.42%.
Work on `C/C(=N\O)[C@H]1CC[C@@]2(O)C3=CC(=O)[C@@H]4C[C@@H](O)[C@@H](O)C[C@]4(C)[C@H]3CC[C@]12C` [Compound 16, poststerone 20(E)-oxime] yielded an IC50 [1, 3] of over 2.51e-05 M and an inhibition at 25 µM [1] of 4.3%.
`CC(C)(O)CC[C@@H](O)[C@](C)(O)[C@H]1CC[C@@]2(O)C3=C/C(=N/O)[C@@H]4C[C@@H](O)[C@@H](O)C[C@]4(C)[C@H]3CC[C@]12C` [Compound 17, 20-hydroxyecdysone 6(Z)-oxime] was tested, and the IC50 [1, 3] was over 2.51e-05 M and the inhibition at 25 µM [1] was 4.53%.
In the case of `CC(C)(O)CC[C@@H](O)[C@](C)(O)[C@H]1CC[C@@]2(O)C3=C/C(=N\O)[C@@H]4C[C@@H](O)[C@@H](O)C[C@]4(C)[C@H]3CC[C@]12C` [Compound 18, 20-hydroxyecdysone 6(E)-oxime], the IC50 [1, 3] was about 2.51e-05 M and the inhibition at 25 µM [1] was 60.1%.
For `CCC1(CC)O[C@H]2C[C@@]3(C)[C@@H](C[C@H]2O1)C(=O)C=C1[C@@H]3CC[C@]2(C)[C@@H]([C@@](C)(O)[C@H](O)CCC(C)(C)O)CC[C@@]12O` [Compound 19, 28,28-diethyl-2,3-methylidene-20-hydroxyecdysone], the “agonistic activity … at 1 μM” value [2] was “did not activate the reporter gene”, the agonist/antagonist classification [2] was “ecdysteroid antagonists” and the IC50 [1, 3] was 3.02e-06 M.
In the case of `CC(C)(O)CC[C@@H](O)[C@](C)(O)[C@H]1CC[C@@]2(O)C3=CC(=O)[C@@H]4C[C@@H](O)[C@@H](O)C[C@]4(C)[C@@]3(O)CC[C@]12C` [Compound 20, 9α,20-dihydroxyecdysone], the IC50 [1, 3] was over 2.51e-05 M and the inhibition at 25 µM [1] was 45.7%.
`CC(C)(O)CC[C@@H](O)[C@](C)(O)[C@H]1CC[C@@]2(O)C3=CC(=O)[C@H]4C[C@@H](O)[C@@H](O)C[C@]4(C)[C@@]3(O)CC[C@]12C` [Compound 21, 5α-9α,20-dihydroxyecdysone] was tested, and the “EcR binding activity in words” value [1] was “very weak activity”, the IC50 [1, 3] was over 2.51e-05 M and the inhibition at 25 µM [1] was 27.1%.
`CC(C)CC[C@@H](O)[C@](C)(O)[C@H]1CC[C@@]2(O)C3=CC(=O)[C@@H]4C[C@@H](O)[C@@H](O)C[C@]4(C)[C@H]3CC[C@]12C` [PonA, ponasterone A, reference compound] showed an IC50 [1, 3] of 8.91e-09 M.
